Here are results for eight molecules from paper PMC9239272 (mBio, 2022).

Series [1] has as its system SARS2 M^pro. Format: cell-based, SARS-CoV-2.
A further series has as its system 229E M^pro. Format: cell-based, HCoV-229E.
In series [2] the test system is NL63 M^pro. Format: cell-based, HCoV-NL63. To be noted: 2-fold dilution series beginning at 100 μM.
Series [3] deals with SARS2 M^pro. Format: cell-based, SARS-CoV-2. The source holds these as a separate data set.
The subject of series [4] is NL63 M^pro. To be noted: in vitro studies; cited from earlier work.

Turning to `CCCCCCNC(=O)n1cc(F)c(=O)[nH]c1=O` [Carmofur], the “dose responsiveness of WT Luc reporter” value in the series on SARS2 M^pro [1] is listed as “tested negative at all concentrations”.
As for `CCOc1ccc2nc3cc(N)ccc3c(N)c2c1` [Ethacridine], in the series with SARS2 M^pro [1], the “dose responsiveness of WT Luc reporter” value was “tested negative at all concentrations”.
With `CC(C)(C)NC(=O)N[C@H](C(=O)N1C[C@H]2[C@@H]([C@H]1C(=O)NC(CC1CCC1)C(=O)C(N)=O)C2(C)C)C(C)(C)C` (some centres unmarked) [boceprevir], the “increase in signal of luciferase construct compared with eGFP construct” value in the series on SARS2 M^pro [1] is ~ 3 fold. For the same molecule, the “maximal signal increase over background” value was 16 fold in the series with SARS2 M^pro [1], 4.3 fold in the series with 229E M^pro and 1.9 fold with NL63 M^pro [2]. In the series with SARS2 M^pro [3], the “restoration of eGFP fluorescence of WT reporter” value is reported as “comparatively modest increase in signal”. For the same molecule, the IC50 (in general, the concentration that inhibits the measured activity by half) in the series on NL63 M^pro [4] is about 100 µM.
Turning to `O=c1c2ccccc2[se]n1-c1ccccc1` [ebselen], the “dose responsiveness of WT Luc reporter” value with SARS2 M^pro [1] is on record as “tested negative at all concentrations”.
For the molecule `Cc1ccc(NC(=O)c2ccc(CN3CCN(C)CC3)cc2)cc1Nc1nc(-c2cccnc2)cs1` [masitinib], the “dose responsiveness of WT Luc reporter” value in the series with SARS2 M^pro [1] is recorded as “tested negative at all concentrations”.
With `CC(C)(C)[C@H](NC(=O)C(F)(F)F)C(=O)N1C[C@H]2[C@@H]([C@H]1C(=O)N[C@H](C#N)C[C@@H]1CCNC1=O)C2(C)C` [nirmatrelvir], the “dose responsiveness of WT Luc reporter” value with SARS2 M^pro [1] is reported as “highest reporter signals at all tested concentrations”.
For GC376, in the series with SARS2 M^pro [1], the “dose responsiveness of WT Luc reporter” value is “causes increased reporter expression”, the “increase in signal of luciferase construct compared with eGFP construct” value is ~ 3 fold and the “maximal signal increase over background” value turned out to be 100 fold. Also, the “maximal signal increase over background” value in the series on 229E M^pro was 72 fold. Also, in the series on NL63 M^pro [2], the “maximal signal increase over background” value worked out at 24 fold. Besides, the “restoration of eGFP fluorescence of WT reporter” value in the series with SARS2 M^pro [3] was “strong restoration of expression and eGFP fluorescence”. Also, the cell viability entry in the series on 293T cells (48 h incubation, wide range of concentrations) is reported as “cell viabilities remain consistent”.
Regarding GRL-0496, in the series on SARS2 M^pro [1], the “dose responsiveness of WT Luc reporter” value was “clear positive dose response”. The “cytotoxicity” value with 293T cells is reported as “no cytotoxicity”.
